The test system of one assay is UV4. In words: Cytotoxicity in a growth inhibition assay against aerobic cultures of UV4 cells was determined. The settings on record: Cricetulus griseus. The format is functional, cell-based.
Another assay concerns CHO-AA8. In words: Cytotoxicity in a growth inhibition assay against aerobic cultures of AA8 cells was determined. The format is functional, cell-based, Cricetulus griseus.

A word on the IC50: it is the concentration at which inhibition is half-maximal. `NC(=O)c1cc(N(CCO)CCO)c(N)cc1N`: the half-maximal inhibitory concentration (IC50) amounted to 3000 µM in the assay with UV4 and 2300 µM in the assay on CHO-AA8 (Cricetulus griseus, CHO-AA8).

On to `NC(=O)c1cc2c(cc1N)NCCN2CCCl`, for which the IC50 in the assay with UV4 was 0.87 µM; in the assay on CHO-AA8 (Cricetulus griseus, CHO-AA8), 6.9 µM.

Turning to `NC(=O)c1cc2c(cc1[N+](=O)[O-])NCCN2CCCl`, the concentration for half-maximal inhibition (IC50) with UV4 was found to be 49 µM; in the assay with CHO-AA8 (Cricetulus griseus, CHO-AA8) it was 730 µM.

Regarding `NC(=O)c1cc(N(CCCl)CCCl)c([N+](=O)[O-])cc1[N+](=O)[O-]`, the half-inhibitory concentration (IC50) in the assay with UV4 is 960 µM; in the assay with CHO-AA8 (cho-aa8) it was 1600 µM.

Source of the values: ChEMBL document CHEMBL1128289, “Reductive chemistry of the novel hypoxia-selective cytotoxin 5-[N,N-bis(2-chloroethyl)amino]-2,4-dinitrobenzamide” (J Med Chem, 1995).
